Assay results from US10513521B2, “Compositions and methods for inhibiting BMP” (The Brigham and Women's Hospital, Inc., priority 2014, dated 2019).

Key:
[1] = molecular target: T1, ALK4 (Homo sapiens, UniProt P36896); assay: TR-FRET enzymatic ALK kinase assay, ALK4
T1 sequence (P36896 24-505): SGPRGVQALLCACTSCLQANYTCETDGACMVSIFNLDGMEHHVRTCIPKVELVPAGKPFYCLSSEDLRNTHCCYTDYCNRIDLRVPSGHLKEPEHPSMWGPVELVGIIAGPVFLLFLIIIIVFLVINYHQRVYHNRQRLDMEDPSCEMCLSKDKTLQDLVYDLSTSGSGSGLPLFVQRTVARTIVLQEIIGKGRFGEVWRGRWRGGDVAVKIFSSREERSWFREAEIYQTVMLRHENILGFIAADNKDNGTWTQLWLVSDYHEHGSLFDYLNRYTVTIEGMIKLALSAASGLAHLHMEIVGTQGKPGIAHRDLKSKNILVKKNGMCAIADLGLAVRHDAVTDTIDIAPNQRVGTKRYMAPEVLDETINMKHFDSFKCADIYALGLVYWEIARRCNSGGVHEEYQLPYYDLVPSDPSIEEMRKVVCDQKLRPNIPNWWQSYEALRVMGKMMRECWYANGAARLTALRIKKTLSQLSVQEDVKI
Description: (§1) Briefly, the ALKs enzymatic assay was initiated by dispense 2.5 μl enzyme in 1× kinase reaction buffer. The assay plate was then added with compounds followed by incubation at room temperature for 10 minutes. Then 2.5 μl/well substrate was added.

[2] = molecular target: ALK6 (Homo sapiens, UniProt O00238); assay: TR-FRET enzymatic ALK kinase assay, ALK6
Description: as §1

[3] = molecular target: T2, ALK2 (Homo sapiens, UniProt Q04771); assay: TR-FRET enzymatic ALK kinase assay, ALK2
T2 sequence (Q04771 21-509): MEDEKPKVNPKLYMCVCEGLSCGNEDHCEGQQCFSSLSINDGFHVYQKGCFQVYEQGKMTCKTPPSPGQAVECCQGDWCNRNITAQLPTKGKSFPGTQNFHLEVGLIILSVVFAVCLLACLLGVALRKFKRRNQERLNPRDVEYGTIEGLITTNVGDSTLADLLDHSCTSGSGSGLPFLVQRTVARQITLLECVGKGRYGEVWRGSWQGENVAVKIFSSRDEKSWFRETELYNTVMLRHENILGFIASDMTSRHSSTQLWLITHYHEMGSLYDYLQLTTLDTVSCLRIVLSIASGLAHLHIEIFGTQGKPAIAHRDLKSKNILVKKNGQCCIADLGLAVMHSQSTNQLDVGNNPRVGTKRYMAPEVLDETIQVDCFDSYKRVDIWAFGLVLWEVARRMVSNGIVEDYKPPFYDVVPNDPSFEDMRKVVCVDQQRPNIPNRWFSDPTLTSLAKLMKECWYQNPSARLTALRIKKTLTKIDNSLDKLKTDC
Description: as §1

[4] = molecular target: T3, ALK5 (Homo sapiens, UniProt P36897); assay: TR-FRET enzymatic ALK kinase assay, ALK5
T3 sequence (P36897 34-503): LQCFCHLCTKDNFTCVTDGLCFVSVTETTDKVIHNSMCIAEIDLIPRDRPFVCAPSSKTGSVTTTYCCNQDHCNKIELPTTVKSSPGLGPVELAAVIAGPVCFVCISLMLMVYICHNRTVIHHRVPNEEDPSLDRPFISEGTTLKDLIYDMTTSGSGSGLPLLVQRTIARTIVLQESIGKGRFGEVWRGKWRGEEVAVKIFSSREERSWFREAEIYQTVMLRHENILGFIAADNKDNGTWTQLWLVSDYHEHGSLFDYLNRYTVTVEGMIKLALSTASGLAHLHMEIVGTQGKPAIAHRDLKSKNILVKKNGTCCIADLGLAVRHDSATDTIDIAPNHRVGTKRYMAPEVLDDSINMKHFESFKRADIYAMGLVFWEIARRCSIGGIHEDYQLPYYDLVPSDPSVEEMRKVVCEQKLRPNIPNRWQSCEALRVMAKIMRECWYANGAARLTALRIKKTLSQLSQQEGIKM
Description: Six ALK kinase enzyme assays were developed for determination of compound activities on ALK1, ALK2, ALK3, ALK4, ALK5 and ALK6.
as §1

[5] = molecular target: ALK3 (Homo sapiens, UniProt P36894); assay: TR-FRET enzymatic ALK kinase assay, ALK3
Description: as §1

[6] = molecular target: ALK1 (Homo sapiens, UniProt P37023); assay: TR-FRET enzymatic ALK kinase assay, ALK1
ALK1, sequence (P37023 22-503): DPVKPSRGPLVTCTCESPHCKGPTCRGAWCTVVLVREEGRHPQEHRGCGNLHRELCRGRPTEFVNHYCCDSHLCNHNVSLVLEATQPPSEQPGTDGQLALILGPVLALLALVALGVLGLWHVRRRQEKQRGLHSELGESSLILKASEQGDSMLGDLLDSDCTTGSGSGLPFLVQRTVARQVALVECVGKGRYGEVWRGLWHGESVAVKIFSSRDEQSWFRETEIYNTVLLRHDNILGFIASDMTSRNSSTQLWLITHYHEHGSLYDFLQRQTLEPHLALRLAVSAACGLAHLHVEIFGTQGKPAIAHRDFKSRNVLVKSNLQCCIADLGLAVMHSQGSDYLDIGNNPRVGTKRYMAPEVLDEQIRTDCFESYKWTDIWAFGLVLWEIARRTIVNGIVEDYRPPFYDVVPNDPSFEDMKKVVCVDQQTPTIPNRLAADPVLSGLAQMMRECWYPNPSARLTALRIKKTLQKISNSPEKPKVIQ
Description: as §1

ALK6, sequence (O00238 14-502): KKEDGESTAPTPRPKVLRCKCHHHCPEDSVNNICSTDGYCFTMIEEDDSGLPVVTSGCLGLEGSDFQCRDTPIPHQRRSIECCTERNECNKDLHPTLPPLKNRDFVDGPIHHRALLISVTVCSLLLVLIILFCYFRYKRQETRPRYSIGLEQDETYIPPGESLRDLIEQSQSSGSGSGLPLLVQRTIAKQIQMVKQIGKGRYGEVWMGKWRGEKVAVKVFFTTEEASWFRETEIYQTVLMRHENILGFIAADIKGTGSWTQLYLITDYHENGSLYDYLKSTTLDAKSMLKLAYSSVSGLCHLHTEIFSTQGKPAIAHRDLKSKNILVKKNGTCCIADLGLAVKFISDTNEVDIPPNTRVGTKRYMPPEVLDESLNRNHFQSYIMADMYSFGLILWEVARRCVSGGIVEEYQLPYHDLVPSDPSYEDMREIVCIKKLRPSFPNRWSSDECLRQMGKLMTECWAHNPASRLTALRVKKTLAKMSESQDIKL
ALK3, sequence (P36894 24-532): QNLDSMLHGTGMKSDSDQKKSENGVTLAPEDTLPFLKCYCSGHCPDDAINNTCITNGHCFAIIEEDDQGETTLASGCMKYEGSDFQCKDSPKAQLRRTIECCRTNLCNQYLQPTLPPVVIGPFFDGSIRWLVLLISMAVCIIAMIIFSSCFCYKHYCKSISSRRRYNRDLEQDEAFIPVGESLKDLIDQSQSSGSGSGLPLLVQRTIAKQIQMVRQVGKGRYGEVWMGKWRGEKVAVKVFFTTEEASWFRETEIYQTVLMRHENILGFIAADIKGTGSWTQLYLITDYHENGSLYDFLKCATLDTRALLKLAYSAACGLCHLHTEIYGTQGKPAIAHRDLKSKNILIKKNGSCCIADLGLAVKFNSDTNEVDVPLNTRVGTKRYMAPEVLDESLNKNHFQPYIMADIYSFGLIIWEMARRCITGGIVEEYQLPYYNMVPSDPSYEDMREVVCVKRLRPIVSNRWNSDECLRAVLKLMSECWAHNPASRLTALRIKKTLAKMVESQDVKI

Row | SMILES | IC50 [1] [nM] | IC50 [2] [nM] | IC50 [3] [nM] | IC50 [4] [nM] | IC50 [5] [nM] | IC50 [6] [nM]
1 | C[C@@H](O)c1cccc(-c2cnn3cc(-c4ccc(CCN5CCC(O)C5)cc4)cnc23)c1 (stereo partly drawn) [Compound 155, 1-(4-(3-(3-((R)-1-hydroxyethyl)phenyl)pyrazolo[1,5-a]pyrimidin-6-yl)phenethyl)pyrrolidin-3-ol] | > 10000 | > 10000 | 140 | > 10000 | 7300 | 820
2 | C[C@@H](O)c1cccc(-c2cnn3cc(-c4ccc(CCN5CCCC5)cc4)cnc23)c1 [Compound 156, (R)-1-(3-(6-(4-(2-(pyrrolidin-1-yl)ethyl)phenyl)pyrazolo[1,5-a]pyrimidin-3-yl)phenyl)ethanol] | > 10000 | > 10000 | 160 | > 10000 | 6200 | 840
3 | C[C@@H](O)c1cccc(-c2cnn3cc(-c4ccc(CCN5CCCC(O)C5)cc4)cnc23)c1 (stereo partly drawn) [Compound 157] | > 10000 | > 10000 | 120 | > 10000 | 5900 | 760
4 | C[C@@H](O)c1cccc(-c2cnn3cc(-c4ccc(CCN5CCOCC5)cc4)cnc23)c1 [Compound 158, (R)-1-(3-(6-(4-(2-morpholinoethyl)phenyl)pyrazolo[1,5-a]pyrimidin-3-yl)phenyl)ethanol] | > 10000 | > 10000 | 250 | > 10000 | > 10000 | 2500
5 | C[C@@H](O)c1cccc(-c2cnn3cc(-c4ccc(CCN5CCC(O)CC5)cc4)cnc23)c1 [Compound 159, (R)-1-(4-(3-(3-(1-hydroxyethyl)phenyl)pyrazolo[1,5-a]pyrimidin-6-yl)phenethyl)piperidin-4-ol] | > 10000 | > 10000 | 180 | > 10000 | 6100 | 1000
6 | C[C@@H](O)c1cccc(-c2cnn3cc(-c4ccc(OCCN5CCCC5)cc4)cnc23)c1 [Compound 160, (R)-1-(3-(6-(4-(2-(pyrrolidin-1-yl)ethoxy)phenyl)pyrazolo[1,5-a]pyrimidin-3-yl)phenyl)ethanol] | 8900 | > 10000 | 190 | > 10000 | 3300 | 1500
7 | NC(c1cccc(-c2cnn3cc(-c4ccc(OCCN5CCCC5)cc4)cnc23)c1)C(F)(F)F (stereo not drawn) [Compound 161] | > 10000 | > 10000 | 150 | > 10000 | 9400 | 1600
8 | NC(c1ccc(-c2cnn3cc(-c4ccc(OCCN5CCCC5)cc4)cnc23)c2ccccc12)C(F)(F)F (stereo not drawn) [Compound 162, 2,2,2-trifluoro-1-(4-(6-(4-(2-(pyrrolidin-1-yl)ethoxy)phenyl)pyrazolo[1,5-a]pyrimidin-3-yl)naphthalen-1-yl)ethanamine] | > 10000 | > 10000 | 8100 | > 10000 | > 10000 | > 10000
9 | CC(O)c1cccc(-c2cnn3cc(-c4ccc(OC5(CN6CCNCC6)CC5)cc4)cnc23)c1 (stereo not drawn) [Compound 168, 1-(3-(6-(4-(1-(piperazin-1-ylmethyl)cyclopropoxy)phenyl)pyrazolo[1,5-a]pyrimidin-3-yl)phenyl)ethanol] | > 10000 | > 10000 | 85 | > 10000 | 1700 | 610
10 | CS(=O)(=O)c1cccc(-c2cnn3cc(-c4ccc(OC5(CN6CCNCC6)CC5)cc4)cnc23)c1 [Compound 169, 3-(3-(methylsulfonyl)phenyl)-6-(4-(1-(piperazin-1-ylmethyl)cyclopropoxy)phenyl)pyrazolo[1,5-a]pyrimidine] | > 10000 | 5700 | 52 | > 10000 | 1500 | 280
11 | CS(=O)(=O)c1cccc(-c2cnn3cc(-c4ccc(OC5(CN6CCCC6)CC5)cc4)cnc23)c1 [Compound 170, 3-(3-(methylsulfonyl)phenyl)-6-(4-(1-(pyrrolidin-1-ylmethyl)cyclopropoxy)phenyl)pyrazolo[1,5-a]pyrimidine] | > 10000 | 9600 | 33 | > 10000 | 1500 | 270
12 | CC(O)c1cccc(-c2cnn3cc(-c4ccc(CCN5CCNCC5)cc4)cnc23)c1 (stereo not drawn) [Compound 171, 1-(3-(6-(4-(2-(piperazin-1-yl)ethyl)phenyl)pyrazolo[1,5-a]pyrimidin-3-yl)phenyl)ethanol] | > 10000 | > 10000 | 170 | > 10000 | 2000 | 1100
13 | CS(=O)(=O)c1cc(-c2cnn3cc(-c4ccc(CCN5CCCCC5)cc4)cnc23)cc(C(F)(F)F)c1 [Compound 172, 3-(3-(methylsulfonyl)-5-(trifluoromethyl)phenyl)-6-(4-(2-(piperidin-1-yl)ethyl)phenyl)pyrazolo[1,5-a]pyrimidine] | > 10000 | > 10000 | 1200 | > 10000 | > 10000 | > 10000
14 | CC(O)c1cccc(-c2cnn3cc(-c4ccc(OC5(CN6CCC(O)CC6)CC5)cc4)cnc23)c1 (stereo not drawn) [Compound 174] | > 10000 | > 10000 | 43 | > 10000 | 1600 | 790
15 | C[S+](=O)([O-])c1cccc(-c2cnn3cc(-c4ccc(OC5(CN6CC(F)(F)C6)CC5)cc4)cnc23)c1 [Compound 176, 6-(4-(1-((3,3-difluoroazetidin-1-yl)methyl)cyclopropoxy)phenyl)-3-(3-(methylsulfonyl)phenyl)pyrazolo[1,5-a]pyrimidine] | > 10000 | > 10000 | 68 | > 10000 | 2400 | 720
16 | CC(O)c1cccc(-c2cnn3cc(-c4ccc(OC5(CN6CCOCC6)CC5)cc4)cnc23)c1 (stereo not drawn) [Compound 177, 1-(3-(6-(4-(1-(morpholinomethyl)cyclopropoxy)phenyl)pyrazolo[1,5-a]pyrimidin-3-yl)phenyl)ethanol] | > 10000 | > 10000 | 45 | > 10000 | 890 | 770
17 | C[S+](=O)([O-])c1cccc(-c2cnn3cc(-c4ccc(CCN5CCC6(CC5)CNC6)cc4)cnc23)c1 [Compound 178, 6-(4-(2-(2,7-diazaspiro[3.5]nonan-7-yl)ethyl)phenyl)-3-(3-(methylsulfonyl)phenyl)pyrazolo[1,5-a]pyrimidine] | > 10000 | > 10000 | 92 | > 10000 | > 10000 | > 10000
18 | C[S+](=O)([O-])c1cccc(-c2cnn3cc(-c4ccc(OC5(CN6CCOCC6)CC5)cc4)cnc23)c1 [Compound 179, 4-((1-(4-(3-(3-(methylsulfonyl)phenyl)pyrazolo[1,5-a]pyrimidin-6-yl)phenoxy)cyclopropyl)methyl)morpholine] | > 10000 | 3600 | 31 | > 10000 | 750 | 380
19 | NC(c1cccc(-c2cnn3cc(-c4ccc(OC5(CN6CCC(O)CC6)CC5)cc4)cnc23)c1)C(F)(F)F (stereo not drawn) [Compound 180, 1-((1-(4-(3-(3-(1-amino-2,2,2-trifluoroethyl)phenyl)pyrazolo[1,5-a]pyrimidin-6-yl)phenoxy)cyclopropyl)methyl)piperidin-4-ol] | > 10000 | > 10000 | 62 | > 10000 | 3800 | 1300
